According to ChEMBL document CHEMBL4295262, “Evaluation of the utility of stem-cell derived cardiomyocytes for drug proarrhythmic potential” (2019):

How the values were obtained:
Details in all cases: human, ipsc-cm
[1] = (§1) Electrical activity assay on cell lines treated with a given drug. DMSO was used as a vehicle and a control, unblinded dofetilide was used as a control.
[2] = as §1; assay type: cell-based; set-up: APDc: unit not given here
[3] = as §1; assay type: ADME, cell-based; set-up: FPDc: unit not given here
[4] = as §1; remark: listed apart in the source
[5] = as §1; remark: listed apart in the source
[6] = 3.169 µM, concentration (um) 3.16912 uM
[7] = 10.01 µM, concentration (um) 10.0144 uM
[8] = 31.65 µM, concentration (um) 31.6456 uM
[9] = 100 µM, concentration (um) 100 uM
[10] = 0.0001 µM, concentration (um) 0.0001 uM
[11] = 0.001 µM, concentration (um) 0.001 uM
[12] = 0.01 µM, concentration (um) 0.01 uM
[13] = 0.1 µM, concentration (um) 0.1 uM
[14] = 10 µM, concentration (um) 10 uM

Work on `COCCc1ccc(OCC(O)CNC(C)C)cc1` (configuration not stated) [METOPROLOL] yielded an FPDc ([1]; 3.169 µM) of 61.11, an FPDc ([1]; 10.01 µM) of 74.38 and an FPDc ([1]; 31.65 µM) of 72.23. For the same compound, the FPDc ([1]; 100 µM) was 68, the APDc [2, 6] was 42.47 and the FPD measurement [2, 6] was 42.47 FPDc. It also gave an APDc [2, 7] of 43.54, an FPD measurement [2, 7] of 43.54 FPDc and an APDc [2, 8] of 43.18. The FPD measurement [2, 8] was 43.18 FPDc, the APDc [2, 9] was 55.84 and the FPD measurement [2, 9] was 55.84 FPDc. For the same compound, the FPDc [3, 6] was 0.03359, the FPDc [3, 7] was 0.03613 and the FPDc [3, 8] was 0.03258. For the same compound, the FPD measurement [3, 9] was “More Than Half The Wells Had A Quiescence Event Or Fpdc Readings Of 0”, the FPDc [3, 9] was “More Than Half The Wells Had A Quiescence Event Or Fpdc Readings Of 0” and the FPD measurement ([4]; 3.169 µM) was 54.76 FPDc. The FPDc ([4]; 3.169 µM) was 54.76, the FPD measurement ([4]; 10.01 µM) was 55.07 FPDc and the FPDc ([4]; 10.01 µM) was 55.07. It also gave an FPD measurement ([4]; 31.65 µM) of 53.88 FPDc, an FPDc ([4]; 31.65 µM) of 53.88 and an FPD measurement ([4]; 100 µM) of 71.03 FPDc. The FPDc ([4]; 100 µM) was 71.03, the FPD measurement ([5]; 3.169 µM) was 1 Values Out Of 1 Were Excluded Due To Quiescence Or 0 Fpdc and the FPDc ([5]; 3.169 µM) was 1 Values Out Of 1 Were Excluded Due To Quiescence Or 0 Fpdc. For the same compound, the FPD measurement ([5]; 10.01 µM) was 1 Values Out Of 1 Were Excluded Due To Quiescence Or 0 Fpdc, the FPDc ([5]; 10.01 µM) was 1 Values Out Of 1 Were Excluded Due To Quiescence Or 0 Fpdc and the FPD measurement ([5]; 31.65 µM) was 1 Values Out Of 1 Were Excluded Due To Quiescence Or 0 Fpdc. The FPDc ([5]; 31.65 µM) was 1 Values Out Of 1 Were Excluded Due To Quiescence Or 0 Fpdc, the FPD measurement ([5]; 100 µM) was 1 Values Out Of 1 Were Excluded Due To Quiescence Or 0 Fpdc and the FPDc ([5]; 100 µM) was 1 Values Out Of 1 Were Excluded Due To Quiescence Or 0 Fpdc.

With `CCCCCCCN(CC)CCCC(O)c1ccc(NS(C)(=O)=O)cc1` (configuration not stated) [IBUTILIDE] the FPD measurement ([1]; 0.0001 µM) was 5 Values Out Of 5 Were Excluded Due To Quiescence Or 0 Apdc, the FPDc ([1]; 0.0001 µM) was 68.56 and the FPD measurement ([1]; 0.001 µM) was 5 Values Out Of 5 Were Excluded Due To Quiescence Or 0 Apdc. For the same compound, the FPDc ([1]; 0.001 µM) was 62.64, the FPD measurement ([1]; 0.01 µM) was 5 Values Out Of 5 Were Excluded Due To Quiescence Or 0 Apdc and the FPDc ([1]; 0.01 µM) was 5 Values Out Of 5 Were Excluded Due To Quiescence Or 0 Fpdc. For the same compound, the FPD measurement ([1]; 0.1 µM) was “More Than Half The Wells Had A Quiescence Event Or Apdc Readings Of 0”, the FPDc ([1]; 0.1 µM) was “More Than Half The Wells Had A Quiescence Event Or Fpdc Readings Of 0” and the APDc [2, 10] was 43.63. For the same compound, the FPD measurement [2, 10] was 43.63 FPDc, the APDc [2, 11] was 43.37 and the FPD measurement [2, 11] was 43.37 FPDc. The APDc [2, 12] was 124.5, the FPD measurement [2, 12] was 124.5 FPDc and the FPDc [3, 10] was 0.0175. The FPDc [3, 11] was 0.01997, the FPDc [3, 12] was 0.0289 and the FPD measurement [3, 13] was “More Than Half The Wells Had A Quiescence Event Or Fpdc Readings Of 0”. For the same compound, the FPDc [3, 13] was “More Than Half The Wells Had A Quiescence Event Or Fpdc Readings Of 0”, the FPD measurement ([4]; 0.0001 µM) was 56.72 FPDc and the FPDc ([4]; 0.0001 µM) was 56.72. For the same compound, the FPD measurement ([4]; 0.001 µM) was 63.97 FPDc, the FPDc ([4]; 0.001 µM) was 63.97 and the FPD measurement ([4]; 0.01 µM) was “More Than Half The Wells Had A Quiescence Event Or Fpdc Readings Of 0”. For the same compound, the FPDc ([4]; 0.01 µM) was “More Than Half The Wells Had A Quiescence Event Or Fpdc Readings Of 0”, the FPD measurement ([4]; 0.1 µM) was “More Than Half The Wells Had A Quiescence Event Or Fpdc Readings Of 0” and the FPDc ([4]; 0.1 µM) was “More Than Half The Wells Had A Quiescence Event Or Fpdc Readings Of 0”. The FPD measurement ([5]; 0.0001 µM) was 1 Values Out Of 1 Were Excluded Due To Quiescence Or 0 Fpdc, the FPDc ([5]; 0.0001 µM) was 1 Values Out Of 1 Were Excluded Due To Quiescence Or 0 Fpdc and the FPD measurement ([5]; 0.001 µM) was 1 Values Out Of 1 Were Excluded Due To Quiescence Or 0 Fpdc. For the same compound, the FPDc ([5]; 0.001 µM) was 1 Values Out Of 1 Were Excluded Due To Quiescence Or 0 Fpdc, the FPD measurement ([5]; 0.01 µM) was 1 Values Out Of 1 Were Excluded Due To Quiescence Or 0 Fpdc and the FPDc ([5]; 0.01 µM) was 1 Values Out Of 1 Were Excluded Due To Quiescence Or 0 Fpdc. The FPD measurement ([5]; 0.1 µM) was 1 Values Out Of 1 Were Excluded Due To Quiescence Or 0 Fpdc and the FPDc ([5]; 0.1 µM) was 1 Values Out Of 1 Were Excluded Due To Quiescence Or 0 Fpdc.

In the case of `CN1CCN(CCCCN2C(=O)CN(/N=C/c3ccc(-c4ccc(Cl)cc4)o3)C2=O)CC1` [AZIMILIDE], the FPDc ([1]; 0.01 µM) is reported as 73.84, the FPDc ([1]; 0.1 µM) is reported as 69.12 and the FPDc ([1]; 1 µM) is reported as “More Than Half The Wells Had A Quiescence Event Or Fpdc Readings Of 0”. The FPDc ([1]; 10 µM) was “More Than Half The Wells Had A Quiescence Event Or Fpdc Readings Of 0”, the APDc [2, 12] was 52.41 and the FPD measurement [2, 12] was 52.41 FPDc. For the same compound, the APDc [2, 13] was 47.87, the FPD measurement [2, 13] was 47.87 FPDc and the APDc ([2]; 1 µM, concentration (um) 1 uM) was 63.58. The FPD measurement ([2]; 1 µM, concentration (um) 1 uM) was 63.58 FPDc, the APDc [2, 14] was 121.3 and the FPD measurement [2, 14] was 121.3 FPDc. For the same compound, the FPDc [3, 12] was 0.03892, the FPDc [3, 13] was 0.04044 and the FPDc ([3]; 1 µM, concentration (um) 1 uM) was 0.04651. The FPDc [3, 14] was 0.06031, the FPD measurement ([4]; 0.01 µM) was 55.32 FPDc and the FPDc ([4]; 0.01 µM) was 55.32. For the same compound, the FPD measurement ([4]; 0.1 µM) was 56.52 FPDc, the FPDc ([4]; 0.1 µM) was 56.52 and the FPD measurement ([4]; 1 µM) was 77.06 FPDc. The FPDc ([4]; 1 µM) was 77.06, the FPD measurement ([4]; 10 µM) was 5 Values Out Of 5 Were Excluded Due To Quiescence Or 0 Fpdc and the FPDc ([4]; 10 µM) was 5 Values Out Of 5 Were Excluded Due To Quiescence Or 0 Fpdc.
